The source of these data is US20230129258A1, “HETEROTANDEM BICYCLIC PEPTIDE COMPLEXES” (BicycleTx Limited, priority 2019, published 2023).

A short description of series [1]: Pharmacokinetics in SD rats. It counts as in vivo. To be noted: rat; for half-life: iv, read-out: T1/2 (converted); for clearance: read-out: Clp; for Vd: read-out: Vdss. As to the method: (§1) Male SD Rats were dosed with each heterotandem Bicycle peptide complex formulated in 25 mM Histidine HCl, 10% sucrose pH 7 by IV bolus or IV infusion (15 minutes). Serial bleeding (about 80 μL blood/time point) was performed via submandibular or saphenous vein at each time point. All blood samples were immediately transferred into prechilled microcentrifuge tubes containing 2 μL K2-EDTA (0.5M) as anti-coagulant and placed on wet ice. Blood samples were immediately processed for plasma by centrifugation at approximately 4° C., 3000 g. The precipitant including internal standard was immediately added into the plasma, mixed well and centrifuged at 12,000 rpm, 4° C. for 10 minutes. The supernatant was transferred into pre-labeled polypropylene microcentrifuge tubes, and then quick-frozen over dry ice. The samples were stored at […] or below as needed until analysis. 7.5 μL of the supernatant samples were directly injected for LC-MS/MS analysis using an Orbitrap Q Exactive in positive ion mode to determine the concentrations of analyte. Plasma concentration versus time data were analyzed by non-compartmental approaches using the Phoenix WinNonlin 6.3 software program. C0, CI, Vdss, T½, AUC(0-last), AUC(0-inf), MRT(0-last), MRT(0-inf) and graphs of plasma concentration versus time profile were reported.

The next series relates to human PBMCs. The experiment in a line: Human PBMC co-culture cytokine secretion assay with EphA2-expressing tumor cells (MC38, HT-1080, HT29). It counts as cell-based. The procedure:
[…] MC38 were cultured in Dulbecco's Modified Eagle Medium supplemented with 10% heat inactivated Fetal Bovine Serum (FBS), 1× Penicillin/Streptomycin, 10 mM HEPES, and 2 mM L-Glutamine (referred to as R10 medium). Frozen PBMCs from healthy human donors were thawed and washed once in room temperature PBS with benzonase, and then resuspended in RPMI supplemented with 10% heat inactivated Fetal Bovine Serum (FBS), 1× Penicillin/Streptomycin, 10 mM HEPES, and 2 mM L-Glutamine (herein referred to as R10 medium). 100 μl of PBMCs (1,000,000 PBMCs/ml) and 100 μl of tumor cells (100,000 tumor cells/ml) (Effector:Target cell ratio (E:T) 10:1) were plated in each well of a 96 well flat bottom plate for the co-culture assay. 100 ng/ml of soluble anti-CD3 mAb (clone OKT3) was added to the culture on day 0 to stimulate human PBMCs. Test, control compounds, or vehicle controls were diluted in R10 media and 50 μL was added to respective wells to bring the final volume per well to 250 μL. Plates were covered with a breathable film and incubated in a humidified chamber at 37° C. with 5% CO2 for two days. […] Briefly, the standards and samples were added to a black 96 well plate. Microparticle cocktail (provided in Luminex kit, R&D Systems) was added and shaken for 2 hours at room temperature. The plate was washed 3 times using a magnetic holder. Biotin cocktail was then added to the plate and shaken for 1 hour at RT. The plate was washed 3 times using a magnetic holder. Streptavidin cocktail was added to the plate and shaken for 30 minutes at RT. The plates were washed 3 times using a magnetic holder, resuspended in 100 μL of wash buffer, shaken for 2 minutes at RT, and read using the Luminex 2000. Raw data were analyzed using built-in Luminex software to generate standard curves and interpolate protein concentrations, all other data analyses and graphing were performed using Excel and Prism software. Data represents one study with three independent donor PBMCs tested in experimental duplicates.
Similarly, PBMCs from healthy donors were co-cultured with EphA2 expressing cancer cells (MC38 and HT-1080) at a ratio of 5:1 in presence of anti-CD3 and BCY13272. […]

Series [2] can be described thus: Pharmacokinetics in cynomolgus monkey. It counts as in vivo. To be noted: in vivo, IV infusion (15 min), 1 mg/kg. As to the method: Serial bleeding (about 1.2 ml blood/time point) was performed from a peripheral vessel from restrained, non-sedated animals at each time point into a commercially available tube containing Potassium (K2) EDTA*2H2O (0.85-1.15 mg) on wet ice and processed for plasma. Samples were centrifuged (3,000×g for 10 minutes at 2 to 8° C.) immediately after collection. 0.1 mL plasma was transferred into labelled polypropylene micro-centrifuge tubes. 5-fold of the precipitant including internal standard 100 ng/mL Labetalol & 100 ng/mL dexamethasone & 100 ng/mL tolbutamide & 100 ng/mL Verapamil & 100 ng/mL Glyburide & 100 ng/mL Celecoxib in MeOH was immediately added into the plasma, mixed well and centrifuged at 12,000 rpm for 10 minutes at 2 to 8° C. Samples of supernatant were transferred into the pre-labeled polypropylene microcentrifuge tubes, and frozen over dry ice. The samples were stored at −60° C. or below until LC-MS/MS analysis. An aliquot of 40 μL calibration standard, quality control, single blank and double blank samples were added to the 1.5 mL tube. Each sample (except the double blank) was quenched with 200 μL IS1 respectively (double blank sample was quenched with 200 μL MeOH with 0.5% tritonX-100), and then the mixture was vortex-mixed well (at least 15 s) with vortexer and centrifuged for 15 min at 12000 g, 4° C. A 10 μL supernatant was injected for LC-MS/MS analysis using an Orbitrap Q Exactive in positive ion mode to determine the concentrations of analyte. Plasma concentration versus time data were analyzed by non-compartmental approaches using the Phoenix WinNonlin 6.3 software program. C0, CI, Vdss, T½, AUC(0-last), AUC(0-inf), MRT(0-last), MRT(0-inf) and graphs of plasma concentration versus time profile were reported.

The nature of series [3]: Pharmacokinetics in CD1 mice. It counts as in vivo, CD-1 mice. To be noted: mouse, in vivo; mice, after IP injection; read-out: circulating plasma half-life (converted). The procedure:
as §1, with “Serial” for “Male SD Rats were dosed with each heterotandem Bicycle peptide complex formulated in 25 mM Histidine HCl, 10% sucrose pH 7 by IV bolus or IV infusion (15 minutes). Serial”

A further series concerns MC38 tumors. The experiment in a line: Anti-tumor activity of EphA2/CD137 complexes in syngeneic MC38 tumor model. It counts as in vivo, C57BL/6J-hCD137 mice. To be noted: day 28. The procedure: 6-8 weeks old C57BL/6J-hCD137 female mice were inoculated in the flank with 1×10^6 syngeneic MC38 cells. When tumors reached 76 mm^3 size on average, mice were randomized to receive vehicle or BCY12491 (intraperitoneal administration). BCY12491 was administered (n=6 mice/treatment cohort) at either 5 mg/kg or 15 mg/kg either daily (QD) or every three days (Q3D). QD dosed mice received 22 doses of BCY12491 and Q3D dosed mice received 8 doses of BCY12491. Tumor growth was monitored by caliper measurements until day 73 after treatment initiation. The results of this experiment may be seen in FIG. 9 where it can be seen that the effect of BCY12491 on tumor growth becomes apparent in the first two weeks of the dosing period reducing the tumor growth and causing reduction of volumes of many of the treated tumors. By day 41, 15 out of 24 BCY12491 treated animals had completely responded to the treatment and had no palpable tumors left.
6-8 week old female C57BL/6J-hCD137 mice [B-hTNFRSF9(CD137) mice; Biocytogen] were implanted subcutaneously with 1×10^6 MC38 cells. Mice were randomized into treatment groups (n=6/cohort) when average tumor volumes reached around 76 mm^3 and were treated with daily doses of vehicle (25 mM histidine, 10% sucrose, pH7). BCY12491 treatment was conducted at two different dose levels (5 and 15 mg/kg) and two different dosing schedules (QD: daily; Q3D: every three days). Animals received either 22 QD doses or 8 Q3D doses intraperitoneally (ip). Tumor growth was monitored until tumor reached volumes over 2000 mm^3 or until 73 days after treatment initiation. After Day 73, 5 complete responder animals were re-challenged with MC38 tumor cell implantation alongside with 5 naïve C57BL/6J-hCD137 mice. Tumor growth was monitored for 20 days.
6-8 week old female C57BL/6J-hCD137 mice [B-hTNFRSF9(CD137) mice; Biocytogen] were implanted subcutaneously with 1×10^6 MC38 cells. Mice were randomized into treatment groups (n=6/cohort) when average tumor volumes reached around 92 mm^3 and were treated intravenously with Q3D doses of vehicle (25 mM histidine, 10% sucrose, pH7), 15 mg/kg of BCY12730, BCY12723 or BCY12491 (7 Q3D doses). Tumor growth was monitored for 28 days or until tumors exceeded 2000 mm^3.
6-8 week old female C57BL/6J-hCD137 mice [B-hTNFRSF9(CD137) mice; Biocytogen] were implanted subcutaneously with 1×10^6 MC38 cells. Mice were randomized into treatment groups (n=6/cohort) when average tumor volumes reached around 76 mm^3 and were treated intravenously with twice weekly (BIW) doses of vehicle (25 mM histidine, 10% sucrose, pH7), 5 mg/kg of BCY13048, BCY13050, or BCY12491 (6 BIW doses). Tumor growth was monitored for 28 days or until tumors exceeded 2000 mm^3.

A further series has as its target CD137 (Homo sapiens, UniProt Q07011). The experiment in a line: CD137 reporter assay (Promega, Jurkat cells) in co-culture with EphA2-expressing tumor cells (A549, PC3, HT29). Further details: host or cells: Jurkat reporter cells. It counts as cell-based. In outline: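 Promega CD137 luciferase reporter Jurkat cells co-cultured with tumor cells (RKO for PD-L1; A549, PC3, HT29 for EphA2) and serially diluted test articles in RPMI + 1% FBS, 6 h at 37° C. Bio-Glo luminescence as fold change over cells alone; log(agonist)-response fit gives EC50 (nM) and max fold induction.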
Background: Reporter assays use an easily measured gene product as a stand-in for the process of interest.

[4] abbreviates: male, SD, plasma, IV Inf (15 minutes).

Like-named read-outs stand apart in the source and are kept apart here. Starred links: 1 amine or outer side, 2 acyl side, 3 side chain; linkers in the order of their positions; H or OH if unused. Positions of bridges follow the written chain, without caps; N, C: chain ends. Non-standard residues stand in square brackets, D forms with d. Chains are numbered I, II in the order given. No end group written: not given here. ξ: configuration not given here. *: point of attachment. X1 = O=C(CCOCCOCCOCCN(CCOCCOCCOCCn1cc(CCC(=O)[*:2])nn1)CCOCCOCCOCCn1cc(CCC(=O)[*:3])nn1)[*:1]; X3 = O=C(CCc1cn(CCOCCOCCOCCN(CCOCCOCCOCCC(=O)[*:3])CCOCCOCCOCCn2cc(CCC(=O)[*:2])nn2)nn1)[*:1]; TATA = O=C(CC[*:1])N1CN(C(=O)CC[*:2])CN(C(=O)CC[*:3])C1; ξDip = NC(C(=O)O)C(c1ccccc1)c1ccccc1; Hyp = O=C(O)[C@@H]1C[C@@H](O)CN1; hArg = N=C(N)NCCCC[C@H](N)C(=O)O; tBuAla = CC(C)(C)C[C@H](N)C(=O)O; Nle = CCCC[C@H](N)C(=O)O; Pent4ynoyl = C#CCCC(=O)*

Sequence of CD137 (Q07011 24-255): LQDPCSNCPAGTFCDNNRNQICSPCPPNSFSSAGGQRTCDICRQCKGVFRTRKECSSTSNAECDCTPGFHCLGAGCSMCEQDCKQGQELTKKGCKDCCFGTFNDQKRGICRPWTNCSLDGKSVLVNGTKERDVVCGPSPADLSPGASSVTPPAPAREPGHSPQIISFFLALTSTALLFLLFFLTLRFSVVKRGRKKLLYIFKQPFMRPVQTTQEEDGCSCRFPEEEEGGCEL

As to “I: A[hArg]DC[Hyp]LVNPLCLHP[dD]W[hArg]C-NH2 / II: Ac-C[tBuAla]PE[dK]PYCFADPY[Nle]CA-NH2 / III: Ac-C[tBuAla]PE[dK]PYCFADPY[Nle]CA-NH2 (linker I:4-I:11-I:18, II:1-II:8-II:15, III:1-III:8-III:15 via TATA; linker I:N-II:5-III:5 via X1) [BCY12491]”, the half-life in series [1] (in vivo, IV Bolus) was 1.3 h; in series [2] (read-out: T1/2 (converted)), 3.2 h; in series [3] it was 2.5 h. Further, the clearance in series [1] (in vivo, IV Bolus) was found to be 20 mL/min/kg; in series [2] (read-out: Clp), 3 mL/min/kg. The Vd in series [1] (in vivo, IV Bolus) stood at 1.6 L/kg; in series [2] (read-out: Vdss) it was 0.36 L/kg. For the same substance, the EC50 (in general, the concentration that produces a half-maximal response) with human PBMCs (MC38 co-culture, donor 228711, read-out: EC50 of IFN-γ cytokine secretion) was 0.085 nM; with human PBMCs (MC38 co-culture, donor 228769, read-out: EC50 of IFN-γ cytokine secretion) it was 0.034 nM.
Consider “I: Ac-C[tBuAla]PE[dK]PYCFADPY[Nle]CA-NH2 / II: Ac-C[tBuAla]PE[dK]PYCFADPY[Nle]CA-NH2 / III: C[Hyp]LVNPLCL[ξDip]P[dD]WTC-NH2 (linker I:1-I:8-I:15, II:1-II:8-II:15, III:1-III:8-III:15 via TATA; linker I:5-II:5-III:N via X3) [BCY13048]”, for which, in series [1] (setting [4]), the half-life is 3.8 h, the clearance was 11 mL/min/kg and the Vd is 1.2 L/kg. In addition, in the series with human PBMCs (human PBMC-MC38 co-culture, Donor 1, 48 h incubation, read-out: Donor 1 EC50 of IFNγ secretion), the EC50 worked out at 0.3 nM. For the same substance, the concentration for a half-maximal effect (EC50) in the series on human PBMCs (human PBMC-MC38 co-culture, Donor 2, 48 h incubation, read-out: Donor 2 EC50 of IFNγ secretion) was found to be 0.24 nM. In addition, the complete responses with MC38 tumors (5 mg/kg IV BIW, 6 doses) is reported as 5 out of 6. Moreover, the “Emax (fold induction over background)” value at CD137 (CD137 reporter coculture assay with PC3 tumor cells) worked out at 48.35. This substance had an EC50 on CD137 (EC50, CD137 reporter coculture assay with PC3 tumor cells) of 0.09 nM.
Consider “BCY12723: EphA2:CD137 1:2; BCY9594 + 2x BCY12143; linker N-(acid-PEG3)-N-bis(PEG3-azide) (peptide 1 A[hArg]DC[Hyp]LVNPLCLHP[dD]W[hArg]C; peptide 2 Ac-C[tBuAla]EE[dK](Pent4ynoyl)PYCFADPY[Nle]C; linker I:4-I:11-I:18, II:1-II:8-II:15 via TATA; not fully specified (bridges); also: chain 2 present twice on linker, EphA2:CD137 1:2)”, for which the EC50 with human PBMCs (human PBMC-MC38 co-culture, Donor 1, 72 h incubation, read-out: Donor 1 EC50 of IFNγ secretion) worked out at 0.13 nM; with human PBMCs (human PBMC-MC38 co-culture, Donor 2, 72 h incubation, read-out: Donor 2 EC50 of IFNγ secretion), 0.095 nM. In the series with MC38 tumors (15 mg/kg IV Q3D, 7 doses), the complete responses is 2 out of 6. The “Fold Improvement over BCY9173, EC50 (nM)” value with CD137 (co-culture with PC3) turned out to be 2.2 fold. Besides, in the series with CD137 (co-culture with PC3, versus BCY9173), the “Fold Improvement over Emax” value is 1.8 fold.
